Target: Neuraminidase (Influenza A virus (A/Puerto Rico/8/1934(H1N1)), UniProt P03468, H274Y)
Set-up: species or system Influenza A virus (A/California/04/2009(H1N1))

SMILES: CCC(CC)O[C@@H]1C=C(C(=O)O)C[C@H](NC(C)=O)[C@H]1NC(C)=O
- IC50: 1380 nM
